Test results: US10988507B2, “Immunomodulators” (Bristol-Myers Squibb Company, priority 2016, dated 2021)
Where a SMILES comes first, the peptide text is derived from it. Bridges are numbered along the chain shown (N, C = ends). [ ]: non-standard residue; d: D form. The star is where a group is joined. Palmitoyl = CCCCCCCCCCCCCCCC(=O)*; Hyp = O=C(O)[C@@H]1C[C@@H](O)CN1; Myristoyl = CCCCCCCCCCCCCC(=O)*; NMeNle = CCCC[C@H](NC)C(=O)O; NMeA = CN[C@@H](C)C(=O)O

What was measured:
[1] = target: PD-1-Ig binding to PD-L1-TVMV-His (PD-L1-His) (Homo sapiens (Human), UniProt Q9NZQ7); assay: PD-1/PD-L1 Homogenous Time-Resolved Fluorescence (HTRF) binding assay; conditions: PD-1-Ig (20 nM)/PD-L1-His (10 nM) binding assay
Sequence of PD-1-Ig binding to PD-L1-TVMV-His (PD-L1-His) (Q9NZQ7 other isoform, or with tags, fused parts or gaps): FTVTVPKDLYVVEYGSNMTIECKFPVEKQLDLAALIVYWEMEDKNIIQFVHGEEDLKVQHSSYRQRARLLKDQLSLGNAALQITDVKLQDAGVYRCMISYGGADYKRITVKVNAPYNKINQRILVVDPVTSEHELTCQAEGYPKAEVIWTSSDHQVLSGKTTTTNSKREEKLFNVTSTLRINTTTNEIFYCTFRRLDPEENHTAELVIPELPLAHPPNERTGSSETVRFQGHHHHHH
Description: The ability of the macrocyclic peptides of the present disclosure to bind to PD-L1 was investigated using a PD-1/PD-L1 Homogenous Time-Resolved Fluorescence (HTRF) binding assay.
Homogenous Time-Resolved Fluorescence (HTRF) Assays of Binding of Soluble PD-1 to Soluble PD-L1. Soluble PD-1 and soluble PD-L1 refers to proteins with carboxyl-end truncations that remove the transmembrane-spanning regions and are fused to heterologous sequences, specifically the Fc portion of the human immunoglobuling G sequence (Ig) or the hexahistidine epitope tag (His). All binding studies were performed in an HTRF assay buffer consisting of dPBS supplemented with 0.1% (w/v) bovine serum albumin and 0.05% (v/v) Tween-20. For the PD-1-Ig/PD-L1-His binding assay, inhibitors were pre-incubated with PD-L1-His (10 nM final) for 15 m in 4 μl of assay buffer, followed by addition of PD-1-Ig (20 nM final) in 1 μl of assay buffer and further incubation for 15 m. PD-L1 fusion proteins from either human, cynomologous macaques, mouse, or other species were used. HTRF detection was achieved using europium crypate-labeled anti-Ig monoclonal antibody (1 nM final) and allophycocyanin (APC) labeled anti-His monoclonal antibody (20 nM final). Antibodies were diluted in HTRF detection buffer and 5 μl was dispensed on top of binding reaction. […]

[2] = oral administration, extensive first-pass metabolism in the liver; cited from earlier work

IC50 [1] [nM]	SMILES	bioavailability [2]
1930	CCCCCCCCCCCCCCCC(=O)NCCCC[C@@H]1NC(=O)[C@H](CCCC)N(C)C(=O)[C@H](CCCC)N(C)C(=O)[C@H](Cc2c[nH]c3ccccc23)NC(=O)[C@H](CO)NC(=O)[C@H](Cc2c[nH]c3ccccc23)NC(=O)[C@@H]2C[C@@H](O)CN2C(=O)[C@H](CC(C)C)NC(=O)[C@H](Cc2cnc[nH]2)NC(=O)[C@@H]2CCCN2C(=O)[C@H](CC(=O)O)NC(=O)[C@H](C)N(C)C(=O)[C@H](Cc2ccc(O)cc2)NC(=O)CSC[C@@H](C(=O)NCC(N)=O)NC1=O [Example 11058] ({CH2CO}-Y[NMeA]DPHL[Hyp]WSW[NMeNle][NMeNle]K(Palmitoyl)CG-NH2; thioether N-14)	–
690	CCCCCCCCCCCCCC(=O)NCCCC[C@@H]1NC(=O)[C@H](CCCC)N(C)C(=O)[C@H](CCCC)N(C)C(=O)[C@H](Cc2c[nH]c3ccccc23)NC(=O)[C@H](CO)NC(=O)[C@H](Cc2c[nH]c3ccccc23)NC(=O)[C@@H]2C[C@@H](O)CN2C(=O)[C@H](CC(C)C)NC(=O)[C@H](Cc2cnc[nH]2)NC(=O)[C@@H]2CCCN2C(=O)[C@H](CC(=O)O)NC(=O)[C@H](C)N(C)C(=O)[C@H](Cc2ccc(O)cc2)NC(=O)CSC[C@@H](C(=O)NCC(N)=O)NC1=O [Example 11059] ({CH2CO}-Y[NMeA]DPHL[Hyp]WSW[NMeNle][NMeNle]K(Myristoyl)CG-NH2; thioether N-14)	–
–	CCCC1O[C@@H]2C[C@H]3[C@@H]4CCC5=CC(=O)C=C[C@]5(C)[C@H]4[C@@H](O)C[C@]3(C)[C@]2(C(=O)CO)O1 (stereo partly drawn) [budesonide]	about 10%
